From US20260365637A1, “DUAL EZH2-HSP90 INHIBITORS” (TAIPEI MEDICAL UNIVERSITY, priority 2023, published 2026)
“Also recorded” adds a separate entry of the source.

What was measured:
mitochondrial ROS = experiment: MitoSOX assay of mitochondrial ROS; format: cell-based
Experimental: (§1) Dihydrorhodamine 123 (DHR; Thermo Fisher Scientific, Waltham, MA, USA) was used to label cellular ROS detected by flow cytometry, and the MitoSOX reagent (Thermo Fisher Scientific) was used to label mitochondrial ROS [55].
Thus, the ability of compound 7 to disturb redox homeostasis in TMZ-resistant cells and attain amplified therapeutic efficacy for GBM was evaluated. In both Pt3 and Pt3R cells, treatment with compound 7 for 48 h increased the ROS level (FIG. 7A). […] Moreover, it was also observed that compound 7 increased mitochondria-derived ROS.
(§2) Treatment concentration of MPT1A059 was indicated.

Pt3R cells [1] = experiment: Cellular ROS assay (DHR, flow cytometry) in Pt3R cells; format: cell-based, human; conditions: 48 h, FIG. 7A
Source text: as §1, §2

Pt3 cells = experiment: Cellular ROS assay (DHR, flow cytometry) in Pt3 cells; format: cell-based, human; conditions: 48 h, FIG. 7A
Source text: as §1, §2

Pt3R cells [2] = experiment: RNA-seq gene expression profiling in Pt3R cells; format: cell-based, human
Experimental: Pt3 GBM cells were isolated from a GBM patient as described in our previous study. Temozolomide (TMZ)-resistant phenotype of Pt3R cells had been validated previously. Pt3 cells were cultured in DMEM-supplemented with 10% fetal bovine serum, 100 μg/ml streptomycin and 100 μg/ml penicillin G. Pt3R cells were cultured in the presence of 100 μM of TMZ (MilliporeSigma Corporate, St. Louis, MO, USA).
RNA was isolated using the RNA extracting kit (Zymo Research, Irvine, CA, USA), and subjected to RNA-seq serviced by BIOTOOLS Co., Ltd (New Taipei City, Taiwan). Cell pellets were collected and subjected to proteomic analysis serviced by BIOTOOLS Co., Ltd. The comparison in gene expression between Pt3 and Pt3R was performed using RNA seq, and has been described previously.
To gain insights regarding the ability of dual inhibitor 7 to suppress the viability of TMZ-resistant GBM cells, RNA-seq to analyze gene expression profiles was performed.

EZH2 (Core Histone) = EZH2 (Core Histone) (Homo sapiens, UniProt Q15910); experiment: EZH2 inhibition assay (Reaction Biology Corporation); format: biochemical
Chain of EZH2 (Core Histone) (Q15910 whole entry): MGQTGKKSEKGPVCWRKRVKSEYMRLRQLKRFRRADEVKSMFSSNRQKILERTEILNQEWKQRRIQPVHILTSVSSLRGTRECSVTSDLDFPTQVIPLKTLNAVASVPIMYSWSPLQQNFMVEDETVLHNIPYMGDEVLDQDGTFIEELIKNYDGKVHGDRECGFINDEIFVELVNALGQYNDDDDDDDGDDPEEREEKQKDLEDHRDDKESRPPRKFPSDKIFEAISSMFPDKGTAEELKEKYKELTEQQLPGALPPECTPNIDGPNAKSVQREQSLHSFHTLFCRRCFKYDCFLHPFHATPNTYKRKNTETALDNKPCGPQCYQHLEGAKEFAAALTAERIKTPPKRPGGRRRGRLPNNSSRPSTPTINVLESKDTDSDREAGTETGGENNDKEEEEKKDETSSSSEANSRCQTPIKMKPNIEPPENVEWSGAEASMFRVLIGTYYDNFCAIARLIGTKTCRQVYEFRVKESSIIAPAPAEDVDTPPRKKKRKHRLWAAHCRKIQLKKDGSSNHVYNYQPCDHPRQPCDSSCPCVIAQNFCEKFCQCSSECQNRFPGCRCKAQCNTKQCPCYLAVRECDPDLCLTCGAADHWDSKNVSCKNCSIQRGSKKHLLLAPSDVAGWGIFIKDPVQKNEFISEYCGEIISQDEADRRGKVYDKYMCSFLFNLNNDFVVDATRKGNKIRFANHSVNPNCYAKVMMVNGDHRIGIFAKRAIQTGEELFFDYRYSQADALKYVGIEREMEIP
Chain of EZH2 (Core Histone) (O75530 whole entry partner): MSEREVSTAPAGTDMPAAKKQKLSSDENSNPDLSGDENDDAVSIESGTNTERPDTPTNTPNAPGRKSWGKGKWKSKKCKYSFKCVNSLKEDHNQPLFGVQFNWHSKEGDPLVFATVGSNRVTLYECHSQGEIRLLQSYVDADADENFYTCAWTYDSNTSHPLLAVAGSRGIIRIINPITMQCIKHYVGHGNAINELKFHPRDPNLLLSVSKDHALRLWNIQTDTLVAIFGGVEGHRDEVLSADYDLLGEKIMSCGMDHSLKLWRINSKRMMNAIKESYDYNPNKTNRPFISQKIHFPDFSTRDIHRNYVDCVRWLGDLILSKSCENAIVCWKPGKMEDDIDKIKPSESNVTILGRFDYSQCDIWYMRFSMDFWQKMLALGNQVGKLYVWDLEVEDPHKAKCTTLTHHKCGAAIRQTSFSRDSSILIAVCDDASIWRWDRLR
Chain of EZH2 (Core Histone) (Q15022 whole entry partner): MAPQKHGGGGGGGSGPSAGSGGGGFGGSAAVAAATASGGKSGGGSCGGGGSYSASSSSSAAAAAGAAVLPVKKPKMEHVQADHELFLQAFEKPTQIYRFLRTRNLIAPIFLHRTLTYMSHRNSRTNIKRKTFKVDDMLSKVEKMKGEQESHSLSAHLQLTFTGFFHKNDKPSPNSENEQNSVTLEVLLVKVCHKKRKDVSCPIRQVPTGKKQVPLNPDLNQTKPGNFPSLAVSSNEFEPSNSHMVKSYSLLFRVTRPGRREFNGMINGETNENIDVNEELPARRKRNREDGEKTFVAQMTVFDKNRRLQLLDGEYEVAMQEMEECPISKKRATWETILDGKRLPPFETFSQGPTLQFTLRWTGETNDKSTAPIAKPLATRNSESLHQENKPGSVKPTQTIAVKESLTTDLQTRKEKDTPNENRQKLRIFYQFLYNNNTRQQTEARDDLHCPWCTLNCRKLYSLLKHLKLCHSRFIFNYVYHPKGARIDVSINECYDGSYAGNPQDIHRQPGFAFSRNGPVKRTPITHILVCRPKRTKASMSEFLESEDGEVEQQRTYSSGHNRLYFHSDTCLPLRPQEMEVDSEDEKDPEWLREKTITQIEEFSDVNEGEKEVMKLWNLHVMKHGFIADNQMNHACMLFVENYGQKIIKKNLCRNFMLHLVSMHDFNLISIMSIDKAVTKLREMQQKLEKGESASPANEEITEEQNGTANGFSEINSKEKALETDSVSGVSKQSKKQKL
Chain of EZH2 (Core Histone) (Q09028 whole entry partner): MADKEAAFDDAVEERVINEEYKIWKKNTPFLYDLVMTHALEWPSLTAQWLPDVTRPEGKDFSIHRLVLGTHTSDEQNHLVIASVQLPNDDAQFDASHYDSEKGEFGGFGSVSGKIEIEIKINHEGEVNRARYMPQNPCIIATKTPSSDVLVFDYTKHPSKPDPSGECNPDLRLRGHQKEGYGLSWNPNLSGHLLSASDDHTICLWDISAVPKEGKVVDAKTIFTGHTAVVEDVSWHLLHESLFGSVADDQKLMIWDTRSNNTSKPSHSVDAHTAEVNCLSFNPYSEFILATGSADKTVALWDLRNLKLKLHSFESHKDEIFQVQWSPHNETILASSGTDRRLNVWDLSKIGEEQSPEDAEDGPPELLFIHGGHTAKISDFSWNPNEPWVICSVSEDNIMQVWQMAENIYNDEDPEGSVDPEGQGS
Chain of EZH2 (Core Histone) (Q6ZN18 whole entry partner): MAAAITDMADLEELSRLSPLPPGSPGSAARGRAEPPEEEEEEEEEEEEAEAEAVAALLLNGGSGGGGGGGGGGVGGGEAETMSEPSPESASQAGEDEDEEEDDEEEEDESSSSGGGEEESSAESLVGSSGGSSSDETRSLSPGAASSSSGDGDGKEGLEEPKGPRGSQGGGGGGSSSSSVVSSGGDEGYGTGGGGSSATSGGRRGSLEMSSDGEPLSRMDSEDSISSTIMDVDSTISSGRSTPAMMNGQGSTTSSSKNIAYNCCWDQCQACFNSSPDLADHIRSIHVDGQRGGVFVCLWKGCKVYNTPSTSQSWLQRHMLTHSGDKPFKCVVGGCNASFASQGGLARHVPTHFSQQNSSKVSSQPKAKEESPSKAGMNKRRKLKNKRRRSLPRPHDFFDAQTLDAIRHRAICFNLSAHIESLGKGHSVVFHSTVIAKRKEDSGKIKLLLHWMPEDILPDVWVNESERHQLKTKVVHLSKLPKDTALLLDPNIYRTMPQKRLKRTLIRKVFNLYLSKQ
Experimental: The EZH2 inhibitory ability of the synthesized adduct was assessed by Reaction Biology Corporation, Malvern, PA (http://www.reactionbiology.com).

Pt3R cells [3] = experiment: Cell cycle analysis (propidium iodide, flow cytometry); format: cell-based, human; conditions: 24 h, FIG. 5E
Pt3R cells [4] = experiment: Cell viability / cytotoxicity of TMZ-resistant Pt3R cells (CCK8); format: cell-based, human
Pt3R cells [5] = experiment: Proliferation of Pt3R cells after treatment (FIG. 4A); format: cell-based, human; conditions: 2 μM, 48 h
Pt3R tumors = experiment: Growth of TMZ-resistant Pt3R tumors in mice; format: in vivo, NOD.CB17-Prkdc^scid/NCrCrl mice; conditions: 5 mg/kg twice weekly
Experimental: NOD.CB17-Prkdc^scid/NCrCrl mice (8-week-old) were purchased from BioLASCO Taiwan Co., Ltd. (Taipei, Taiwan). Pt3R cells (1×10^6) in […] DMEM were injected onto the backs of mice. After 10 days, tumor was touchable. Mice were injected with DMSO (the control group) or MPT1A059 (5 mg/kg) twice per week.
In-vivo anti-GBM efficacy of compound 7 was also evaluated in this study. For the in-vivo study, experimental NOD.CB17-Prkdc^scid/NCrCrl mice (8-week-old) were used and Pt3R cells (1×10^6) in […] DMEM were injected into the backs of mice. After 10 days, the tumor was detectable. Mice were injected with DMSO (the control group) or compound 7 (5 mg/kg) twice weekly. […] In a nutshell, the outcome of the in-vivo study ascertains that the remarkable in vitro anti-GBM activity profile of dual inhibitor 7 was translated to the in-vivo potential.

HSP90a = HSP90a (Homo sapiens, UniProt P07900); experiment: In vitro HSP90 inhibition assay (Reaction Biology Corporation); format: biochemical
Experimental: The HSP90 inhibitory activity of the synthesized adduct was assessed by Reaction Biology Corporation, Malvern, PA (http://www.reactionbiology.com).
An in-vitro experiment was performed to assess the inhibitory effect of the synthesized adducts on the heat shock protein 90 (HSP90).

Pt3R cells [6] = experiment: Western blotting in Pt3R cells; format: cell-based, human
Source text: The details of the procedure are described in our previous study. Primary antibodies, anti-CENPA, anti-CENPE, anti-CENPF and anti-CENPI antibodies, were purchased from abcam (Cambridge, UK); anti-CDK1 and anti-cyclin B1 antibodies were purchased from Santa Cruz Biotechnology, Inc. (Dallas, TX, USA); anti-EZH2 and anti-H3K27^me3 antibodies were purchased from GeneTex International Corporation (Hsinchu, Taiwan).
Furthermore, the impact of compound 7 treatment on centromere proteins (CENPs) was assessed. As such, CENPs are the main constituent proteins of the kinetochore, which are essential for cell division. CENP expression is elevated in GBM tissues and correlated with unfavourable overall survival in glioma patients.
as §2

Compound: CCN(c1cc(-c2cccc(N(C)C(=O)c3cc(C(C)C)c(O)cc3O)c2)cc(C(=O)NCc2c(C)cc(C)[nH]c2=O)c1C)C1CCOCC1 [Compound 7, 3′-(2,4-dihydroxy-5-isopropyl-N-methylbenzamido)-N-((4,6-dimethyl-2-oxo-1,2-dihydropyridin-3-yl)methyl)-5-(ethyl(tetrahydro-2H-pyran-4-yl)amino)-4-methyl-[1,1′-biphenyl]-3-carboxamide]
- mitochondria-derived ROS (mitochondrial ROS): increased
- MitoSOX red signal representing ROS produced from mitochondria (mitochondrial ROS; FIG. 7C): remarkably enhanced
- ROS level (Pt3R cells [1]): increased
- ROS level (Pt3 cells): increased
- DNA repair capacity (Pt3R cells [2]): highly suppressed
- CENPF, CENPE, CENPA and CENPI (gene expression) (Pt3R cells [2]; FIG. 5C): decreased
- RBBP8 and BRCA1 gene expression (Pt3R cells [2]; FIG. 6A): suppressed
- expression of genes involved in processing DNA double-strand break and in homologous recombination (Pt3R cells [2]; FIG. 6A): decreased
- expression of genes regulating homologous recombination (TOP2A, RAD54B, RAD21, EME1, BRIP1) (Pt3R cells [2]; FIG. 6H): suppressed
- cell division and DNA repair gene sets (GSEA) (Pt3R cells [2]; GSEA): highly suppressed
- M phase/kinetochore/spindle-related gene expression (Pt3R cells [2]; RNA-seq): decreased
- apoptosis/necrosis-related gene expression (Pt3R cells [2]; RNA-seq): increased
- number of gene expressions decreased (Pt3R cells [2]; RNA-seq, 2 μM, 48 h): 498
- number of gene expressions increased (Pt3R cells [2]; RNA-seq, 2 μM, 48 h): 297
- IC50 (EZH2 (Core Histone)): 6.29 nM
- cell cycle (Pt3R cells [3]): induced cell cycle arrest at the M phase
- cell growth / viability inhibitory effect in words (Pt3R cells [4]): the only ones to exert cell viability inhibitory potential; also recorded: the most effective against the Pt3R cell lines
- IC50 (Pt3R cells [4]; read-out: Cell growth inhibitory effect IC50): 1010 nM
- cell proliferation (Pt3R cells [5]): significantly inhibited cell proliferation
- tumor size and weight compared to DMSO-treated mice (Pt3R tumors; FIG. 8A): significantly smaller sizes and weights
- tumor growth (Pt3R tumors; FIG. 8B): tumor growth suppression ability
- HSP90 inhibitory potential in words (HSP90a): conferred HSP90 inhibitory potential
- IC50 (HSP90a): 60.1 nM
- CDK1 and cyclin B1 expression (Pt3R cells [6]; FIG. 5D): downregulated
- EZH2 expression and EZH2-modulated H3K27 trimethylation (Pt3R cells [6]; FIG. 7B): inhibited
- catalase, superoxide dismutase (SOD) 1, glutathione reductase and glutathione peroxidase (GPX) 1 proteins (Pt3R cells [6]; FIG. 7B): decreased
- CENPs protein expression (Pt3R cells [6]; Pt3R cells, FIG. 5D): decreased
